According to patent publication US8501842B2, “Polypropylene resin composition and molded article” (Sumitomo Chemical Company, Limited, priority 2007, dated 2013):

Test: Weight loss by thermogravimetric analysis (TG-DTA)
Type: physicochemical
Settings: room temperature to 300° C. at 10° C./min, nitrogen gas atmosphere (100 ml/min)
Experimental: Regarding requirement (c), from the viewpoint of the staining of a mold, the emitted amount of VOC, and the stability against photodegradation, the weight loss measured in a thermogravimetric analysis at a temperature of 300° C. under a nitrogen gas atmosphere preferably is less than 5% by weight, and more preferably is less than 3% by weight. The weight loss measured by the thermogravimetric analysis of a hindered amine light stabilizer (C) is a value determined by using a thermo gravimetry differential thermal analyzer (TG-DTA). Described concretely, it is a weight loss rate determined using a thermobalance when the temperature of a hindered amine light stabilizer (C) is increased from room temperature to 300° C. at a rate of 10° C. per minute under a nitrogen gas atmosphere (in a nitrogen flow at a flow rate of 100 ml/min).
The weight loss by thermogravimetric analysis (TG-DTA) of a hindered amine light stabilizer was measured with a thermo gravimetry differential thermal analyzer from room temperature to 300° C. at a temperature increasing rate of 10° C./min under a nitrogen gas atmosphere (100 ml/min).

Weight loss by thermogravimetric analysis (TG-DTA) | Compound
31.6 % by weight | CC(C)(C)c1ccc(OC(=O)c2cc(C(C)(C)C)c(O)c(C(C)(C)C)c2)c(C(C)(C)C)c1 [Example C-3, 2,4-Di-tert-butylphenyl 3,5-di-tert-butyl-4-hydroxybenzoate]
5.8 % by weight | CN1C(C)(C)CC(OC(=O)CC(C(=O)OC2CC(C)(C)N(C)C(C)(C)C2)C(CC(=O)OC2CC(C)(C)N(C)C(C)(C)C2)C(=O)OC2CC(C)(C)N(C)C(C)(C)C2)CC1(C)C (stereo not drawn) [Example C-2, Tetrakis(1,2,2,6,6-pentamethyl-4-piperidyl) 1,2,3,4-butanetetracarboxylate]

Compound | Weight loss by thermogravimetric analysis (TG-DTA)
Condensate of N,N-bis(3-aminopropyl)ethylenediamine-2,4-bis[N-butyl-N-(1,2,2,6,6-pentamethyl-4-piperidyl)amino]-6-chloro-1,3,5-triazine [Example C-5] | 0.6 % by weight
